From paper PMC12336832, “A key loop in the catalytic pocket of the PL17 family of alginate lyases determines minimal substrate recognition” (The Journal of Biological Chemistry, 2025)

Legend:
[1] = target: T1, VaAly17A (Vibrio alginolyticus, UniProt A0A2I3CRJ2); test: TBA assay, TLC, gel filtration HPLC, ESI-MS; format: biochemical; settings: pH 8.0, 200 mM NaCl, 30 °C, 0.3% substrate; exolytic, from the nonreducing end
T1 construct: gene N646_4459; N-terminal His tag, E. coli BL21(DE3), plasmid pZLZ04; no signal peptide predicted; theoretical 81,525 Da
T1 sequence (A0A2I3CRJ2 1-721): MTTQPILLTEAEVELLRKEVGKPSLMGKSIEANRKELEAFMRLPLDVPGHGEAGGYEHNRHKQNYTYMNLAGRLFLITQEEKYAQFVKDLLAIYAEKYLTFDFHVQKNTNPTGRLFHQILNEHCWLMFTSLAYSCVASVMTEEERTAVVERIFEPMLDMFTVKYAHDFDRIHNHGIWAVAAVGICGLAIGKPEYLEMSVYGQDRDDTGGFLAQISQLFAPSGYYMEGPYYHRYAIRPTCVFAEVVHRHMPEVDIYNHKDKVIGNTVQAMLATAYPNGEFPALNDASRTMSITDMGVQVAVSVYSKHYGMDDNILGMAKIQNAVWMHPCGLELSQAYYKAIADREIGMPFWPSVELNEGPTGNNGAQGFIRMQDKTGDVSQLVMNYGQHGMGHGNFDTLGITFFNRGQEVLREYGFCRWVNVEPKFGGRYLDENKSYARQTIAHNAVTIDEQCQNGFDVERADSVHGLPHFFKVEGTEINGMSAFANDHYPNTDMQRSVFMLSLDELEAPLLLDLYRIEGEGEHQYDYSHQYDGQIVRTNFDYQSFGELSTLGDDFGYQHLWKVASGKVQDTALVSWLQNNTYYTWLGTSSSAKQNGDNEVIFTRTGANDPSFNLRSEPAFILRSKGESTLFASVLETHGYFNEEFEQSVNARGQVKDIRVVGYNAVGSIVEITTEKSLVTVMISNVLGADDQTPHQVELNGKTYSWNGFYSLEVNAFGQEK

[2] = target: T2, VaAly17B (Vibrio alginolyticus, UniProt A0A2I3CRW2); test: TBA assay, TLC, gel filtration HPLC, ESI-MS; format: biochemical; settings: pH 8.0, 200 mM NaCl, 20 °C, 0.3% substrate
T2 construct: gene N646_4460; N-terminal His tag, E. coli BL21(DE3), plasmid pZLZ05; no signal peptide predicted; theoretical 81,023 Da
T2 sequence (A0A2I3CRW2 1-721): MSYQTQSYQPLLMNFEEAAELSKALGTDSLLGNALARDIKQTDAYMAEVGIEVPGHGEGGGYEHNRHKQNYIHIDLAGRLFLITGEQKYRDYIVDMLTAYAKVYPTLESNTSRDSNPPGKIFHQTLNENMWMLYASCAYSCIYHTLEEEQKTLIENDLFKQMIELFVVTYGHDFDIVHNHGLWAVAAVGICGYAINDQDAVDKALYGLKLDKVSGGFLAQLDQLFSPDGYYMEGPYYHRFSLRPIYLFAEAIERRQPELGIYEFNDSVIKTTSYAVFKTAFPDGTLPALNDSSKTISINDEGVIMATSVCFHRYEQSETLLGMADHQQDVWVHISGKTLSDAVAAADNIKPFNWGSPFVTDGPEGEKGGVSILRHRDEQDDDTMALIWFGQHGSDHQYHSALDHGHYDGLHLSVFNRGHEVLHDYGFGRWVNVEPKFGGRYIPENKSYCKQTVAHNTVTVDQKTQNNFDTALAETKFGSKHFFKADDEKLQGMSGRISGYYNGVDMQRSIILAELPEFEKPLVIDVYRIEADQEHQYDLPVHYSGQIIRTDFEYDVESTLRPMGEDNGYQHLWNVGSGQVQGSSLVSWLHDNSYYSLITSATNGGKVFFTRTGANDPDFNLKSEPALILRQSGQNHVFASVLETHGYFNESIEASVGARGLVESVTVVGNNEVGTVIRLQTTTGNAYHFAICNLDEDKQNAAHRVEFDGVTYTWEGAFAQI

SMILES	specific activity [1]	specific activity [2]
O=C(O)[C@H]1O[C@@H](O[C@H]2[C@H](O)[C@H](O)[C@H](O[C@H]3[C@H](O)[C@H](O)C(O)O[C@@H]3C(=O)O)O[C@@H]2C(=O)O)[C@@H](O)[C@@H](O)[C@@H]1O (some centres unmarked) [M3, Trimer-M3]	unsaturated M2 was produced when M3 was used as the substrate	–
O=C(O)[C@H]1O[C@@H](O[C@H]2[C@H](O)[C@H](O)C(O)O[C@@H]2C(=O)O)[C@@H](O)[C@@H](O)[C@@H]1O (some centres unmarked) [M2, Dimer-M2]	–	VaAly17B could degrade M2 into monomers
